What was measured:
T47D cells = assay: Cellular growth inhibition assay for T47D cells, CellTiter-Glo; assay type: cell-based, human; conditions: 72 hours treatment, CellTiter-Glo 2.0 cell viability
Outline: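 Luminescence from CellTiter-Glo 2.0 after 72 h of compound exposure gives the viability signal. Cells grew in insulin-supplemented (0.2 units/mL) DMEM with 10% FBS and were treated one day after seeding at 0.5% DMSO. GI50 values come from four-parameter nonlinear regression.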

[1] = tested on: T-Rex 293 cell line SC3 cells lacking increased expression of androgen receptor protein; assay: Cellular growth inhibition, T-Rex 293 SC3 cells without doxycycline, CellTiter-Glo; assay type: cell-based; conditions: T-Rex 293 SC3 cells not exposed to doxycycline, CellTiter-Glo 2.0
Outline: (§1)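 Growth inhibition was compared in a T-Rex 293 clone with and without doxycycline (10 ng/mL)-driven androgen receptor overexpression. Compounds were applied for 72 h in hormone-depleted serum, and GI50 came from four-parameter curves of CellTiter-Glo signal.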

VCaP cells = assay: Cellular growth inhibition assay for VCaP cells, CellTiter-Glo; assay type: cell-based, human; conditions: 72 hours treatment, CellTiter-Glo 2.0
Outline: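 GI50 values come from four-parameter curve fits of luminescence data normalized to a zero baseline. Compound, in medium with 0.5% DMSO, was added one day after plating and left for 72 h before CellTiter-Glo 2.0 addition.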

[2] = tested on: T-Rex 293 cell line SC3 cells having increased expression of androgen receptor protein due to exposure to doxycycline; assay: Cellular growth inhibition, T-Rex 293 SC3 cells with doxycycline (androgen receptor induced), CellTiter-Glo; assay type: cell-based; conditions: T-Rex 293 SC3 cells with 10 ng/mL doxycycline (increased androgen receptor expression)
Outline: as §1

SMILES | GI50 (T47D cells; Homo sapiens, T47D, 72 h) [nM] | GI50 ([1]; 72 h) [nM] | GI50 (VCaP cells; Homo sapiens, VCaP, 72 h) [nM] | GI50 ([2]; 72 h) [nM] | GI50 (T47D cells) [nM] | GI50 ([1]; 72 hours) [nM] | GI50 (VCaP cells) [nM] | GI50 ([2]; 72 hours) [nM]
Cc1sc2c(c1C)C(c1ccc(C3CC(N4CCN(c5ccc(C(=O)N[C@H]6C(C)(C)[C@H](Oc7ccc(C#N)c(Cl)c7)C6(C)C)cn5)CC4)C3)cc1)=N[C@@H](C)c1nnc(C)n1-2 (stereo partly drawn) [Compound I-572] | < 500 | < 500 | < 500 | < 500 |  |  |  | 
Cc1sc2c(c1C)C(c1ccc(CC[C@@H]3CC[C@]4(CCCN(c5ncc(C(=O)N[C@H]6C(C)(C)[C@H](Oc7ccc(C#N)c(Cl)c7)C6(C)C)cn5)C4)C3)cc1)=N[C@@H](Cc1ncco1)c1nnc(C)n1-2 [Compound I-250] | < 500 | > 3000 | < 500 | < 500 |  |  |  | 
Cc1sc2c(c1C)C(c1ccc(N3CCC4(C3)CN(c3cnc(C(=O)N[C@H]5C(C)(C)[C@H](Oc6ccc(C#N)c(Cl)c6)C5(C)C)cn3)C4)cc1)=N[C@@H](C)c1nnc(C)n1-2 [Compound I-578] | < 500 | > 3000 | < 500 | > 3000 |  |  |  | 
Cc1sc2c(c1C)C(c1ccc(OC3CC4(CCN(c5ccc(C(=O)N[C@H]6C(C)(C)[C@H](Oc7ccc(C#N)c(Cl)c7)C6(C)C)cc5)CC4)C3)cc1)=N[C@@H](Cc1ncco1)c1nnc(C)n1-2 [Compound I-196] | < 500 | > 3000 | 500 to 1500 | < 500 |  |  |  | 
Cc1sc2c(c1C)C(c1ccc(N3CC4(CCN(c5ncc(C(=O)N[C@H]6C(C)(C)[C@H](Oc7ccc(C#N)c(Cl)c7)C6(C)C)cn5)C4)C3)cc1)=NC(Cc1ncco1)c1nnc(C)n1-2 (stereo partly drawn) [Compound I-656] | < 500 | 500 to 1500 | < 500 | < 500 |  |  |  | 
Cc1sc2c(c1C)C(c1ccc(Oc3ncc(C(=O)N[C@H]4C(C)(C)[C@H](Oc5ccc(C#N)c(Cl)c5)C4(C)C)cn3)cc1)=N[C@@H](Cc1ncco1)c1nnc(C)n1-2 [Compound I-205] | 500 to 1500 | 500 to 1500 | < 500 | < 500 |  |  |  | 
Cc1sc2c(c1C)C(c1ccc([C@H]3CCCN(c4ncc(C(=O)N[C@H]5C(C)(C)[C@H](Oc6ccc(C#N)c(Cl)c6)C5(C)C)cn4)C3)cc1)=N[C@@H](Cc1ncco1)c1nnc(C)n1-2 [Compound I-302] | < 500 | 500 to 1500 | < 500 | < 500 |  |  |  | 
Cc1sc2c(c1C)C(c1ccc(C[C@H]3C[C@]4(CCCN(c5ncc(C(=O)N[C@H]6C(C)(C)[C@H](Oc7ccc(C#N)c(Cl)c7)C6(C)C)cn5)C4)C3)cc1)=N[C@@H](Cc1ncco1)c1nnc(C)n1-2 [Compound I-157] | 500 to 1500 | > 3000 | 500 to 1500 | < 500 |  |  |  | 
Cc1sc2c(c1C)C(c1ccc(NCC(=O)N3CCC(c4ncc(C(=O)N[C@H]5C(C)(C)[C@H](Oc6ccc(C#N)c(Cl)c6)C5(C)C)cn4)CC3)cc1)=N[C@@H](Cc1ncco1)c1nnc(C)n1-2 [Compound I-274] | 500 to 1500 | > 3000 | > 3000 | < 500 |  |  |  | 
Cc1sc2c(c1C)C(c1ccc(-c3cc(OC4CCN(c5ncc(C(=O)N[C@H]6C(C)(C)[C@H](Oc7ccc(C#N)c(Cl)c7)C6(C)C)cn5)CC4)cs3)cc1)=N[C@@H](Cc1ncco1)c1nnc(C)n1-2 [Compound I-443] | > 3000 | > 3000 | < 500 | < 500 |  |  |  | 
Cc1sc2c(c1C)C(c1ccc(CN3CCC4(CCCN(c5ncc(C(=O)N[C@H]6C(C)(C)[C@H](Oc7ccc(C#N)c(Cl)c7)C6(C)C)cn5)C4)C3)cc1)=NC(Cc1ncco1)c1nnc(C)n1-2 (stereo partly drawn) [Compound I-137] | < 500 | 500 to 1500 | < 500 | < 500 |  |  |  | 
Cc1sc2c(c1C)C(c1ccc(CCCC3CCN(c4ncc(C(=O)N[C@H]5C(C)(C)[C@H](Oc6ccc(C#N)c(Cl)c6)C5(C)C)cn4)CC3)cc1)=NC(Cc1ncco1)c1nnc(C)n1-2 (stereo partly drawn) [Compound I-133] | < 500 | 500 to 1500 | < 500 | < 500 |  |  |  | 
Cc1sc2c(c1C)C(c1ccc(C3CC(N4CCN(c5ccc(C(=O)N[C@H]6C(C)(C)[C@H](Oc7ccc(C#N)c(Cl)c7)C6(C)C)nc5)CC4)C3)cc1)=N[C@@H](C)c1nnc(C)n1-2 (stereo partly drawn) [Compound I-577] | < 500 | 500 to 1500 | < 500 | < 500 |  |  |  | 
Cc1sc2c(c1C)C(c1ccc(C#CCC3CCN(c4ncc(C(=O)N[C@H]5C(C)(C)[C@H](Oc6ccc(C#N)c(Cl)c6)C5(C)C)cn4)CC3)cc1)=N[C@H](Cc1ncco1)c1nnc(C)n1-2 [Compound I-58] | > 3000 | > 3000 | < 500 | < 500 |  |  |  | 
Cc1sc2c(c1C)C(c1ccc(OC[C@H]3CCCN(c4ncc(C(=O)N[C@H]5C(C)(C)[C@H](Oc6ccc(C#N)c(Cl)c6)C5(C)C)cn4)C3)cc1)=N[C@@H](Cc1ncco1)c1nnc(C)n1-2 [Compound I-255] | < 500 | < 500 | < 500 | < 500 |  |  |  | 
Cc1sc2c(c1C)C(c1ccc(NC[C@@H]3CN(c4ncc(C(=O)N[C@H]5C(C)(C)[C@H](Oc6ccc(C#N)c(Cl)c6)C5(C)C)cn4)CCO3)cc1)=N[C@@H](Cc1ncco1)c1nnc(C)n1-2 [Compound I-646] | < 500 | < 500 | < 500 | < 500 |  |  |  | 
Cc1sc2c(c1C)C(c1ccc(OCCOC3CCN(c4ncc(C(=O)N[C@H]5C(C)(C)[C@H](Oc6ccc(C#N)c(Cl)c6)C5(C)C)cn4)CC3)cc1)=N[C@@H](CC(=O)NC1CC1)c1nnc(C)n1-2 [Compound I-67] | 500 to 1500 | < 500 | < 500 | < 500 |  |  |  | 
Cc1sc2c(c1C)C(c1ccc(OC[C@H]3C[C@@]4(CCCN(c5ncc(C(=O)N[C@H]6C(C)(C)[C@H](Oc7ccc(C#N)c(Cl)c7)C6(C)C)cn5)C4)C3)cc1)=N[C@@H](C)c1nnc(C)n1-2 [Compound I-351] | > 3000 | > 3000 | < 500 | < 500 |  |  |  | 
Cc1sc2c(c1C)C(c1ccc(C3CC3C3CC4(CCN(c5ncc(C(=O)N[C@H]6C(C)(C)[C@H](Oc7ccc(C#N)c(Cl)c7)C6(C)C)cn5)CC4)C3)cc1)=N[C@@H](Cc1ncco1)c1nnc(C)n1-2 (stereo partly drawn) [Compound I-238] |  |  |  |  | < 500 | > 3000 | < 500 | < 500
Cc1sc2c(c1C)C(c1ccc(CC3CCC4(C3)CN(c3ncc(C(=O)N[C@H]5C(C)(C)[C@H](Oc6ccc(C#N)c(Cl)c6)C5(C)C)cn3)CCO4)cc1)=N[C@@H](C)c1nnc(C)n1-2 (stereo partly drawn) [Compound I-620] |  |  |  |  | 500 to 1500 | < 500 | < 500 | < 500
Cc1sc2c(c1C)C(c1ccc(O[C@H]3CCC4(CCCN(c5ncc(C(=O)N[C@H]6C(C)(C)[C@H](Oc7ccc(C#N)c(Cl)c7)C6(C)C)cn5)C4)C3)cc1)=N[C@@H](Cc1ncco1)c1nnc(C)n1-2 (stereo partly drawn) [Compound I-200] | 500 to 1500 | 500 to 1500 | < 500 | < 500 |  |  |  | 
CCNC(=O)C[C@@H]1N=C(c2ccc(N3CCC(OC4CN(c5ncc(C(=O)N[C@H]6C(C)(C)[C@H](Oc7ccc(C#N)c(Cl)c7)C6(C)C)cn5)C4)CC3)cc2)c2c(sc(C)c2C)-n2c(C)nnc21 [Compound I-118] | < 500 | 500 to 1500 | < 500 | < 500 |  |  |  | 
Cc1sc2c(c1C)C(c1ccc(COC3CC4(CCCN(c5ncc(C(=O)N[C@H]6C(C)(C)[C@H](Oc7ccc(C#N)c(Cl)c7)C6(C)C)cn5)C4)C3)cc1)=N[C@@H](C)c1nnc(C)n1-2 [Compound I-395] | < 500 | > 3000 | < 500 | < 500 |  |  |  | 
Cc1sc2c(c1C)C(c1ccc(C[C@H]3C[C@H]([C@H]4CCCN(c5ncc(C(=O)N[C@H]6C(C)(C)[C@H](Oc7ccc(C#N)c(Cl)c7)C6(C)C)cn5)C4)C3)cc1)=N[C@@H](Cc1ncco1)c1nnc(C)n1-2 [Compound I-159] | > 3000 | > 3000 | > 3000 | > 3000 |  |  |  | 
Cc1sc2c(c1C)C(c1ccc(C3CC(CC4CN(c5ncc(C(=O)N[C@H]6C(C)(C)[C@H](Oc7ccc(C#N)c(Cl)c7)C6(C)C)cn5)C4)C3)cc1)=NC(Cc1ncco1)c1nnc(C)n1-2 (stereo partly drawn) [Compound I-477] |  |  |  |  | < 500 | < 500 | < 500 | < 500
Cc1sc2c(c1C)C(c1ccc([C@H]3C[C@@H]([C@H]4CCCN(c5ncc(C(=O)N[C@H]6C(C)(C)[C@H](Oc7ccc(C#N)c(Cl)c7)C6(C)C)cn5)C4)C3)cc1)=N[C@@H](Cc1ncco1)c1nnc(C)n1-2 [Compound I-421] | < 500 | > 3000 | < 500 | < 500 |  |  |  | 
Cc1sc2c(c1C)C(c1ccc(Nc3ccc(N4CCN(c5ncc(C(=O)N[C@H]6C(C)(C)[C@H](Oc7ccc(C#N)c(Cl)c7)C6(C)C)cn5)CC4)c(C(F)(F)F)c3)cc1)=N[C@@H](C)c1nnc(C)n1-2 [Compound I-602] | > 3000 | > 3000 | > 3000 | > 3000 |  |  |  | 

— US20260062422A1 (Halda Therapeutics OpCo, Inc., priority 2022, published 2026)
